Experimental data published in patent US4423056A, “5(Aminomethyl)-4,5,6,7-tetrahydro[d]thiazole containing compositions for and medical use in treating circulatory insufficiencies” (Laboratoires Jacques Logeais, priority 1979, dated 1983).
Like-named read-outs stand apart in the source and are kept apart here.

Tests used:
[1] = Acute toxicity in mice, LD50 oral and intraperitoneal; settings: mouse, in vivo
Excerpt: Most of the compounds of the formula (I) have low toxicity, as is apparent from following Table II in which are given the LD50 per os and i.p. in mice.

[2] = system: collateral arteries; assay: Acute occlusion of the femoral artery: resistance of the collateral arteries, systemic blood pressure, tissue perfusion pressure; type: in vivo, dogs
Description: Thus, with some of the compounds, there was noted an increase of the arterial rate of flow from as low a dosage as 0.1-0.5 mg/kg i.v.

[3] = po, per os, read-out: Acute toxicity, oral route LD50
[4] = ip, read-out: Acute toxicity, intraperitoneal route LD50

Structure (SMILES) | LD50 [1, 3] | LD50 [1, 4] | decrease of the resistance of the collateral arteries [2] | effect on systemic blood pressure [2] | effect on tissue perfusion pressure [2]
Cc1nc2c(s1)CCCC2CN (stereo not drawn) [Example 3, 2-Methyl-4-aminomethyl-4,5,6,7-tetrahydro-benzo[d]thiazole] | > 200 mg/kg |  |  |  | 
CNCC1CCc2scnc2C1 (stereo not drawn) [Example 5, 5-(N-Methylaminomethyl)-4,5,6,7-tetrahydro-benzo[d]thiazole] | > 200 mg/kg | > 200 mg/kg |  |  | 
CNCC1CCc2ncsc2C1 (stereo not drawn) [Example 16, 6-(N--methylaminomethyl)-4,5,6,7-tetrahydro-benzo[d]thiazole] | 170 mg/kg | 75 mg/kg |  |  | 
CNCC1CCc2sc(C(C)C)nc2C1 (stereo not drawn) [Example 13, 2-Isopropyl-5-(N-methylaminomethyl)-4,5,6,7-tetrahydrobenzo[d]thiazole] | > 200 mg/kg | 140 mg/kg |  |  | 
CNCC1CCc2sc(C)nc2C1 (stereo not drawn) [Example 6, 2-Methyl-5-(N-methylaminomethyl)-4,5,6,7-tetrahydrobenzo[d]thiazole] | > 200 mg/kg |  | marked decrease | without substantially affecting | without substantially affecting
CCCCc1nc2c(s1)CCC(CNC)C2 (stereo not drawn) [Example 12, 2-n-Butyl-5-(N-methylaminomethyl)-4,5,6,7-tetrahydrobenzo[d]thiazole] | > 200 mg/kg | 140 mg/kg |  |  | 
CCCCNCC1CCc2sc(C)nc2C1 (stereo not drawn) [Example 20] | 145 mg/kg | 58 mg/kg |  |  | 
NCC1CCc2scnc2C1 (stereo not drawn) [Example 14, 5-aminomethyl-4,5,6,7-tetrahydro-benzo[d]thiazole] | ≥ 200 mg/kg | > 200 mg/kg |  |  | 
CNCC1CCCc2scnc21 (stereo not drawn) [Example 2, 4-(N-Methylaminomethyl)-4,5,6,7-tetrahydro-benzo[d]thiazole] | > 200 mg/kg | ≥ 200 mg/kg |  |  | 
CCCCc1nc2c(s1)CCCC2CNC (stereo not drawn) [Example 11, 2-n-Butyl-4-(N-methylaminomethyl)4,5,6,7-tetrahydro-benzo[d]thiazole] | ≥ 200 mg/kg | 58 mg/kg | marked decrease | without substantially affecting | without substantially affecting
NCC1CCCc2scnc21 (stereo not drawn) [Example 1, 4-Aminomethyl-4,5,6,7-tetrahydro-benzo[d]thiazole] | > 200 mg/kg | 140 mg/kg |  |  | 
CCCNCC1CCc2ncsc2C1 (stereo not drawn) [Example 10, 6-(N-n-Propylaminomethyl)-4,5,6,7-tetrahydro-benzo[d]thiazole] | > 200 mg/kg | 190 mg/kg |  |  | 
Cc1nc2c(s1)CCC(CNC(C)C)C2 (stereo not drawn) [Example 19, 2-methyl-5-(N--isopropylamino-methyl)-4,5,6,7-tetrahydro-benzo[d]thiazole] | > 200 mg/kg | > 200 mg/kg |  |  | 
CCNCC1CCc2nc(CC)sc2C1 (stereo not drawn) [Example 9, 2-Ethyl-6-(N-ethylaminomethyl)-4,5,6,7-tetrahydrobenzo[d]thiazole] | > 200 mg/kg | 120 mg/kg |  |  | 
Cc1nc2c(s1)CC(CN)CC2 (stereo not drawn) [Example 17, 2-methyl-6-aminomethyl-4,5,6,7-tetrahydro-benzo[d]thiazole] | > 200 mg/kg | > 200 mg/kg |  |  | 
CCCCNCC1CCCc2sc(C)nc21 (stereo not drawn) [Example 18, 2-methyl-4-(N--n-butylamino-methyl)-4,5,6,7-tetrahydro-benzo[d]thiazole] | > 200 mg/kg | 58 mg/kg |  |  | 
Cc1nc2c(s1)CCC(CN)C2 (stereo not drawn) [Example 15, 2-methyl-5-aminomethyl-4,5,6,7-tetrahydro-benzo[d]thiazole] | > 200 mg/kg | > 200 mg/kg |  |  | 
NCC1CCc2ncsc2C1 (stereo not drawn) [Example 8, 6-Aminomethyl-4,5,6,7-tetrahydro-benzo[d]thiazole] | > 200 mg/kg | > 200 mg/kg |  |  | 
CNCC1CCc2nc(C)sc2C1 (stereo not drawn) [Example 7, 2-Methyl-6-(N-methylaminomethyl)-4,5,6,7-tetrahydrobenzo[d]thiazole] | > 200 mg/kg | > 200 mg/kg |  |  | 
